Molecular target: T1, SULT1A3 in HME(+) cells (Homo sapiens, UniProt P0DMM9)
T1 construct: HME cells were transfected with plasmid containing the coding region of either SULT1A3 or a negative control; expressed in transfected cells
Assay: Ex vivo inhibition of dopamine sulfate (DPS) synthesis in SULT1A3-transfected HME(+) cells
Assay type: cell-based
Details: 100 μM DP, 24 h, parentheses 1 SD
Procedure: A stable transfectant cell line was constructed to test the ability of CMP12 and CMP13 to suppress catecholamine sulfonation in cultured human cells. […] HME cells were transfected with plasmid containing the coding region of either SULT1A3 or a negative control ([14]) (see Experiment and Transfection protocol). Transfectant isolates were grown to near confluence and harvested, and cell extracts were prepared (see Experiment). SULT1A3 levels in the extracts were assessed by determining SULT activity per μg extract (see Experiment). Activity in extracts of the SULT1A3-positive transfectants ranged from 1 to 85 times the levels present in negative-control extracts. […] Consequently, a transfectant, 1A3(+) with extract activity 42 times that of the negative-control isolate, 1A3(-), was selected for further experiments.
To establish conditions for ex vivo inhibition studies, the DP concentration and time dependence of dopamine sulfate (DPS) synthesis by 1A3(+) cells were assessed. DP and its metabolites (DPS, 3-methoxytyramine [3-MT], 3,4-dihydroxyphenylacetic acid [DOPAC], and homovanillic acid [HVA]) are baseline separable using HPLC and can be quantitated optically at […] (see Experiment and Fig. S1). Only DP and DPS were detected in the cell media, and together, they constituted >95% of the DP initially added to the media. The DPS concentration in the 1A3(+) media at 24 h after DP addition is plotted as a function of DP concentration in Fig. 6B. As is evident, the dose-response curve is linear at concentrations as high as 200 μM DP.
Figure 6 HME(+)-cell DPS synthesis and inhibition. A, Time dependence of DPS formation. DP was added at 100 μM to the growth medium of 60 to 70% confluent HME(+)-cells, and the DPS concentration in the medium was determined at the indicated time intervals. B, DP-concentration dependence of DPS synthesis. The Y-axis indicates the concentration of DPS in the growth media 24 h after DP addition. The X-axis indicates the DP concentration added at t = 0 to the growth medium of 60 to 70% confluent HME(+)-cells. […] The levels of DP (red dots) and DPS (blue dots) were determined 24 h after DP addition. […] A–D, dopamine metabolites were separated and quantitated using HPLC (see Experiment); each data point represents the average of three independent determinations, and the sum of DP and DPS concentrations was ≥95% of the total added DP. […]
Transfectants are grown to 60 to 70% confluency at 37 °C in 12-well plates in the MEM containing neomycin (400 μg ml^−1). […] DP metabolite peaks are baseline separated and detected optically at 280 nm (see Fig. S1). Standard curves were used to quantitate each metabolite (Ɛ280 = 3.2 and 2.8 mM^-1 cm^-1 for DP and DPS, respectively). DPS was detected only in the media of cells that express SULT1A3. […]

T1 sequence (P0DMM9 whole entry): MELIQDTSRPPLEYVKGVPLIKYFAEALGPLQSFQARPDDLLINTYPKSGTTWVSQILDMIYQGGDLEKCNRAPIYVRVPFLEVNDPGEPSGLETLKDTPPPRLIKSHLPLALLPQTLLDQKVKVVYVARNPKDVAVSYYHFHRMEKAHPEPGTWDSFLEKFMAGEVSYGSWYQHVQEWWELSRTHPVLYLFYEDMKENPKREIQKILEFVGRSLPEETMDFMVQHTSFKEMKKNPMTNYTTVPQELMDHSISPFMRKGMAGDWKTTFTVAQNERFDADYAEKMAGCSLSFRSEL

SMILES	% Inhibition at saturation	IC50 [µM]
CC(C)Cc1ccc2cc(/C=C/C(N)=O)cnc2n1 [CMP13]	95 (2) %	0.012
CC(C)Cc1ccc2cc(CCC(N)=O)ccc2n1 [CMP12]	84 (3) %	0.26
